# From US8822519B2, “Compound with agitation effect on peroxisome proliferator-activated receptor process for its preparation and use thereof” (Zhejiang Hisun Pharmaceutical Co., Ltd., priority 2008, dated 2014)
# Key:
# [1] = clinical research, Oliver et al. 2001; cited from earlier work
# PPARδ = biological target: T1, PPARδ (Homo sapiens, UniProt Q03181); test: In vitro screening of nuclear receptor agonist: luciferase reporter gene assay in HepG2 cells; assay type: cell-based; conditions: RXR/PPARδ luciferase reporter gene, 24 h treatment
# T1 construct: expressed in transfected cells; host or cells: HepG2 (human hepatocarcinoma, ATCC)
# T1 sequence (Q03181 1-441): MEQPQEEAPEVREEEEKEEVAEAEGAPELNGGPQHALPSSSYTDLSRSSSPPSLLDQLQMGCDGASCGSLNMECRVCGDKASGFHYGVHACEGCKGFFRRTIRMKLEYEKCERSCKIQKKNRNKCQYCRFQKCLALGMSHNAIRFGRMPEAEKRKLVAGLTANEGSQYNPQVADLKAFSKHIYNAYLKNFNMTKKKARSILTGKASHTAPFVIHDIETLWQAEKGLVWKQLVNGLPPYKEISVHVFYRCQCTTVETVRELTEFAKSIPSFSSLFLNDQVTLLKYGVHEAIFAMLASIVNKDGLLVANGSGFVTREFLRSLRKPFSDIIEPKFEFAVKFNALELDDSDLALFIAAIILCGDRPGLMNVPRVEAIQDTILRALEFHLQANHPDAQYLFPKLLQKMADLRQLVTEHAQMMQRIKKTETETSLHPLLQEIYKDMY
# T1 sequence (P19793 1-462 partner): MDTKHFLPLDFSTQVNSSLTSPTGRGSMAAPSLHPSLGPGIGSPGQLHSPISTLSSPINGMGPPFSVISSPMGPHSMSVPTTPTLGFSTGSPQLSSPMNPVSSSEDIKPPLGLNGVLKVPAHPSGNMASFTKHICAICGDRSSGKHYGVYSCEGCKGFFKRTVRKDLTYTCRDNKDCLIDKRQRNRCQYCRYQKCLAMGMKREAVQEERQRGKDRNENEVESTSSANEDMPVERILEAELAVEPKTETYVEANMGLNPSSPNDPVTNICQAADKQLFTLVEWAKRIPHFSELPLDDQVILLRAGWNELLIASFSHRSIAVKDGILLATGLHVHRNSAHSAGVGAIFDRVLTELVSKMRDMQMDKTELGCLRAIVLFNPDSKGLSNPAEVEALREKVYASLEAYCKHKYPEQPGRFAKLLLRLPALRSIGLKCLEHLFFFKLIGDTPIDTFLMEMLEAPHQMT
# Description: Using a reporter gene protocol, the screening model for screening a nuclear receptor agonist in a living cell is designed on a basis of the principal that an activated nuclear receptor can activate transcription of its downstream gene. A reporter gene plasmid is constructed, in which the DNA binding sequence for the nuclear receptor (NRE) is inserted upstream of the luciferase gene, so that the expression of the luciferase gene is placed under the control of the nuclear receptor. Then, the reporter gene plasmid and the nuclear receptor are simultaneously transferred into a cell, and the nuclear receptor is activated when the nuclear receptor agonist is present in the cell culture medium. Then the activated receptor is able to induce the expression of the luciferase gene, while the amount of the luciferase can be determined through its luminous substrate. In this way, the intensity of activation by the compound on the nuclear receptor could be known by observing the luminescence intensity.
# The specific operation is described as follows:
# The experiment reagents: the compounds to be tested (20 mM, in DMSO, stored at −80° C.).
# The hepatocarcinoma cell HepG2 (from ATCC, American Type Culture Collection) was cultured in DMEM medium supplemented with 10% heat-inactivated fetal bovine serum (FBS, Invitogen, Grand Island, N.Y., USA) in a T-75 culture bottle (Greiner, Germany) in a incubator at 37° C., the relative humidity of 100%, and 5% CO2. When the cell culture in the culture bottle reached 80-90% confluency, it was digested with 0.25% Trypsin (with EDTA) for 3 min and inoculated into a 96-well cell culture plate at an inoculating density of 2000 cells/100 μl/well.
# In the next day, when the cells in the 96-well culture plate grew up to 50-80% confluency, cell transfection was performed. The cell co-transfection system comprised the FuGene6 transfection agent (Roche Molecular Biochemicals, Indianapolis, Ind., U.S.A.) and 60 ng DNA (long of hRXR, 10 ng of pCMV βGal, 10 ng of the nuclear receptor expression plasmid RXR/PPARδ, 30 ng of GFP fluorescence reporter gene plasmid, respectively).
# The cell culture medium was discarded immediately at 24 hours post-transfection and replaced by 200 μl of a fresh DMEM medium containing the medicament to be tested (with 10% FBS treated by activated carbon).
# 24 h after treatment with the medicament, the cells were lysed with a lysis solution (Cell Culture Lysis buffer, Promega) and centrifuged, and the supernatant was collected. The supernatant was treated with a fluorescence detection kit (Promega) and counted by a fluorescence meter (Ascent Fluoroskan FL reader, Thermo Labsystems, Finland), and the relative intensity of the luciferase was determined. For assaying the β-galactosidase activity used in the experiment as the inner reference (the inner reference calibrating for the transfection efficiency), 50 μl of the supernatant was transferred into a fresh microplate and treated with the Promega kit and read at a wavelength of 405 nm from a microplate reader (Bio-tech Instruments Inc., Winooski, Vt., USA) (Sauerberg, P.; Olsen, G. S.; Jeppesen, L.; Mogensen, J. P. et al., J. Med. Chem., 2007, 50, 1495-1503).
# The median effective concentration (EC50) of a sample is a concentration at which the sample has 50% pharmacological effect. This value is one of the important parameters for evaluating pharmacological effects of a compound. In the present screening process, the EC50 of a sample was calculated according to the activation of the receptor by the sample at six different concentrations.
# Tissue distribution = assay type: in vivo, SD rats
# Description: 18 of SD rats were fasting for 16 h with free access for water, assigned them into 3 groups with 6 animals/group with a female-to-male ratio of 1:1; they were dosed with HS060098 (10 mg/kg), then the animals were sacrificed at 1, 10, and 24 h after dosing, and the heart, liver, spleen, lung, kidney in each animal were removed rapidly. The tainted blood on the surface of the organ was washed off immediately with physiological saline. The tissue from the organ was dissected apart, washed thoroughly, blotted off, weighed, supplemented with physiological saline at 400 mg/ml, homogenized in an ice bath for 1 min, and centrifuged at 3750 rpm for 20 min. 400 μl of the supernatant was pipetted precisely, followed by addition of 40 μl of an inner standard (HS060001 used as the inner standard with a molar concentration of 5 mmol/L), diluted with 3 ml of purified water, vortexed to homogeneity, and loaded onto a column (SPE C18 column was firstly washed with 3 ml of purified water, and sequentially with 3 ml of 10% methanol for activation). The column was rinsed with 3 ml of purified water at 1 ml/min, and then eluted with 3 ml of a elutant (methanol: purified water=9:1). The eluate was collected and blow-dried under a nitrogen flow at 45° C. The residue was dissolved in 400 μl of acetonitrile and then a HPLC insert was placed and followed by injection of the sample.
# [2] = Pharmacokinetics: plasma concentration-time curve; assay type: in vivo; conditions: both sexes, rat, plasma, oral, SD rats, gastric lavage, 50, 10 and 2 mg/kg
# Description: The dosing volume was 10 ml/kg, and blood samples of 0.4-0.5 ml were taken from the vena orbitalis posterior of the waken animals at different time points post-gastric lavage and centrifuged at 5000 rpm for 10 min. 200 μL of plasma sample was precisely measured, then supplemented with 200 μL acetonitrile, vortexed to evenness, left stand for 5 min, and centrifuged (14000 rpm, 5 min). The supernatant was collected and then centrifuged again (14000 rpm, 5 min). The resulting supernatant was gathered and subjected to HPLC injection. Time points for blood sampling were respectively: 0, 0.5, 1, 2, 4, 6, 8, 10, 12, 24, 36, 48 and 72 h, and the peak area for each time point was the average of those obtained from 6 rats at the same time point. Plasma concentrations were calculated and the medicament concentration-time curve was plotted.
# [3] = distribution in organs, SD rats, 10 mg/kg
smiles,measurement,setting,value
Cc1cc(SCc2sc(-c3ccc(C(F)(F)F)cc3)nc2C)ccc1OCC(=O)O [GW501516],decrease the level of insulin,[1],up to 48%
same,decrease the level of triglyceride (TG),[1],up to 56%
same,increase the level of high density lipoprotein (HDL) cholesterol,[1],up to 80%
same,lower the level of low density lipoprotein (LDL) cholesterol,[1],up to 29%
"Cc1cc(SC(c2ccccc2)c2nn(-c3ccc(C(F)(F)F)cc3)c(=O)n2C)ccc1OC(C)C(=O)O (centres unmarked) [Compound A-13, 2-methyl-2-(2-methyl-4-(1-(3-(4-methyl-5-oxo-1-(4-trifluoromethyl-phenyl)-4,5-dihydrogen-1H-1,2,4-triazolyl))-benzylthio)-phenoxy)-acetic acid]",EC50,PPARδ,20 nM
CCCCn1c(C(Sc2ccc(OC(C)(C)C(=O)O)c(C)c2)c2ccccc2)nn(-c2ccc(C(F)(F)F)cc2)c1=O (centres unmarked) [Compound A-18],EC50,PPARδ,< 1 nM
"CCCCn1c(C(Oc2ccc(SCC(=O)O)cc2C)c2ccccc2)nn(-c2ccc(C(F)(F)F)cc2)c1=O (centres unmarked) [Compound A-17, 2-(3-methyl-4-(1-(3-(4-n-butyl-5-oxo-1-(4-trifluoromethyl-phenyl)-4,5-dihydrogen-1H-1,2,4-triazolyl))-benzyloxy)-phenylthio)-acetic acid]",EC50,PPARδ,< 1 nM
"Cc1cc(OC(c2ccccc2)c2nn(-c3ccc(C(F)(F)F)cc3)c(=O)n2C)ccc1OCC(=O)O (centres unmarked) [Compound A-1, 2-(2-methyl-4-(1-(3-(4-methyl-5-oxo-1-(4-trifluoromethyl-phenyl)-4,5-dihydrogen-1H-1,2,4-triazolyl))-benzyloxy)-phenoxy)-acetic acid]",EC50,PPARδ,468 nM
same,Heart,Tissue distribution; [3],6%
same,Kidney,Tissue distribution; [3],9%
same,Liver,Tissue distribution; [3],65%
same,Lung,Tissue distribution; [3],11%
same,Spleen,Tissue distribution; [3],9%
same,tissue distribution,Tissue distribution; in words,distribute mainly in liver
same,half-life,[2],26 to 28 h
same,bioavailability,[2]; read-out: bioavailability,15%
"Cc1cc(SCC(=O)O)ccc1OCc1nn(-c2ccc(C(F)(F)F)cc2)c(=O)n1C [Compound A-12, 2-(3-methyl-4-(3-(4-methyl-5-oxo-1-(4-trifluoromethyl-phenyl)-4,5-dihydrogen-1H-1,2,4-triazolyl)-methoxy)-phenylthio)-acetic acid]",EC50,PPARδ,650 nM
